What was measured:
[1] = test system: myometrial smooth muscle cells (MSMC); assay: Realtime PCR mRNA expression in treated MSMC; assay type: cell-based, human
Procedure: (§1) Isolation and Culture of Leiomyoma and Myometrial Smooth Muscle Cells. […] Only untreated tissues were used for isolation of LSMC and MSMC. […] LSMC and MSMC were cultured in 6-well plates at an approximate density of 10^6 cells/well in DMEM-supplemented media containing 10% FBS. After reaching visual confluence, the cells were washed in serum-free media and incubated for 24 hrs under serum-free, phenol red-free condition (Chegini, N et al. Mol Hum Reprod, 2002, 8:1071-8).
(§2) Quantitative RealTime PCR. Realtime PCR was utilized for verification of 10 differentially expressed and regulated genes identified in leiomyoma and myometrium as well as LSMC and MSMC from untreated and GnRHa-treated cohorts. The selection of these genes was based not only on their expression values (up or downregulation), but classification and biological functions important to leiomyoma growth and regression, regulation by ovarian steroids, GnRHa and TGF-β. They are IL-11, CITED2, Nur77, EGR3, TGIF, TIEG, p27, p57, GAS-1 and GPRK5 representing cytokines, transcription factors, cell cycle regulators and signal transduction.
(§3) Determination of TGF-β1 on global gene expression in LSMC and MSMC. All the materials utilized for this study including isolation of leiomyoma and myometrial cells are identical to those described in detail above. To determine the effect of TGF-β1 on global gene expression in LSMC and MSMC, the cells were cultured in 6-well plates at approximate density of 10^6 cells/well in DMEM-supplemented media containing 10% FBS. […] The cells were then treated with 2.5 ng/ml of TGF-β1 (R & D System, Minneapolis, […].) for 2, 6 and 12 hours. […] The cells were washed and then treated with TGF-β1 (2.5 ng/ml) for 2 hours. Parallel experiments using untreated cells were used as controls including an additional control for TGF-β type II receptor antisense and sense experiments.
(§4) Total cellular RNA was isolated from LSMC- and MSMC-treated and untreated controls and subjected to microarray analysis. To maintain standard and allow for comparative analysis, the GeneChips used in this study were utilized, simultaneously processed and their gene expression values were subjected to global normalization and transformation. Following these unsupervised assessments the coefficient of variation was calculated for each probe set across all the chips used in this study, and the selected gene expression values of this study were independently subjected to supervised learning including R programming analysis and ANOVA with false discovery rate selected at p<0.001 (Moustakas, A. Immunol Lett, 2002, 82:85-91; Verrecchia, F. et al. J Biol Chem, 2001, 276:17058-17062). The genes identified in these cohorts were analyzed for functional annotation and visualized using Database for Annotation, Visualization, and Integrated Discovery (DAVID) software with integrated GoCharts. Following the analysis, we selected 12 of the differentially expressed and regulated genes, including 10 identified and validated in leiomyoma and myometrium from untreated and GnRHa-treated cohorts, as well as LSMC and MSMC treated in vitro with GnRHa, for validation in response to TGF-β-time dependent action using Realtime PCR. They include IL-11, EGR3, CITED2, TIEG, TGIF, Nur77, p27, p57, GAS-1 and GPRK5. In addition, the expression of Runx1 and Runx2, transcription factors that interact with TGF-β receptor signaling pathways (Zavadil, J. et al. Proc Natl Acad Sci USA, 2001, 98:6686-6691), was validated in LSMC and MSMC as well as in leiomyoma and myometrium from GnRHa-treated and untreated cohorts. Detail description of the materials and methods for Realtime PCR as well as data analysis is provided in Chegini, N. et al. J Soc Gynecol Investig, 2003, 10:161-71.
(§5) Isolation and Culture of Leiomyoma and Myometrial Smooth Muscle Cells. Leiomyoma and myometrial smooth muscle cells (LSMC and MSMC) were isolated and cultured as previously described (Chegini, N. et al. Mol Hum Reprod, 2002, 8:1071-1078). […]

[2] = test system: leiomyoma smooth muscle cells (LSMC); assay: Realtime PCR mRNA expression in treated LSMC; assay type: cell-based, human
Procedure: as §1, §2, §3, §4, §5

[3] = GnRHa 0.1 μM, 2, 6 and 12 hours
[4] = GnRHa 0.1 μM, within 2 to 6 hours, control levels after 12 hours

For `CCNC(=O)[C@@H]1CCCN1C(=O)[C@H](CCCNC(=N)N)NC(=O)[C@H](CC(C)C)NC(=O)[C@@H](CC(C)C)NC(=O)[C@H](Cc1ccc(O)cc1)NC(=O)[C@H](CO)NC(=O)[C@H](Cc1c[nH]c2ccccc12)NC(=O)[C@H](Cc1c[nH]cn1)NC(=O)[C@@H]1CCC(=O)N1` [GnRHa, leuprolide acetate], the “CITED2 expression in MSMC” value [1, 3] was “biphasic effect”, the “GPRK5 expression in MSMC” value [1, 3] was “inhibits” and the “Runx1 expression in MSMC” value [1, 3] was “time-dependent inhibition”. For the same molecule, the “Runx2 expression in MSMC” value [1, 3] was “time-dependent inhibition”, the “CCN2 mRNA expression in MSMC” value ([1]; GnRHa 0.1 μM, 2, 6 and 12 hrs) was “inhibited” and the “CCN3 mRNA expression in MSMC” value ([1]; GnRHa 0.1 μM, 2, 6 and 12 hrs) was “inhibited”. The “CCN4 mRNA expression in MSMC” value ([1]; GnRHa 0.1 μM, 2, 6 and 12 hrs) was “inhibited”, the “S100A4 mRNA expression in MSMC” value ([1]; GnRHa 0.1 μM, 2, 6 and 12 hrs) was “inhibited” and the “fibulin-1C mRNA expression in MSMC” value ([1]; GnRHa 0.1 μM, 2, 6 and 12 hrs) was “inhibited”. For the same molecule, the “FMOD expression in MSMC” value ([1]; GnRHa 0.1 μM, 2 and 6 hrs) was “no significant effect”, the “FMOD expression in MSMC” value ([1]; GnRHa 0.1 μM, 12 hrs) was “inhibited” and the “IL-11 expression in MSMC” value [1, 4] was “increased”. The “Nur77 expression in MSMC” value ([1]; GnRHa 0.1 μM, subsequently declined to control levels) was “rapid induction”, the “CITED2 expression in LSMC” value [2, 3] was “inhibiting” and the “GPRK5 expression in LSMC” value [2, 3] was “inhibits”. The “CCN2 mRNA expression in LSMC” value ([2]; GnRHa 0.1 μM, 2, 6 and 12 hrs) was “inhibited”, the “CCN3 mRNA expression in LSMC” value ([2]; GnRHa 0.1 μM, 2, 6 and 12 hrs) was “inhibited” and the “CCN4 mRNA expression in LSMC” value ([2]; GnRHa 0.1 μM, 2, 6 and 12 hrs) was “inhibited”. The “S100A4 mRNA expression in LSMC” value ([2]; GnRHa 0.1 μM, 2, 6 and 12 hrs) was “inhibited”, the “fibulin-1C mRNA expression in LSMC” value ([2]; GnRHa 0.1 μM, 2, 6 and 12 hrs) was “inhibited” and the “FMOD expression in LSMC” value ([2]; GnRHa 0.1 μM, 2 and 6 hrs) was “no significant effect”. For the same molecule, the “FMOD expression in LSMC” value ([2]; GnRHa 0.1 μM, 12 hrs) was “inhibited”, the “IL-11 expression in LSMC” value [2, 4] was “increased” and the “Nur77 expression in LSMC” value ([2]; GnRHa 0.1 μM, subsequently fell below untreated levels) was “rapid induction”.
